In ChEMBL document CHEMBL3045736, “Cobalt mediated ring contraction reaction of lapachol and initial antibacterial evaluation of naphthoquinones derived from lapachol” (2012):
≈ marks a conversion by molar mass, not a printed value.

What was measured:
Format in all cases: functional
[1] = system: Mycobacterium tuberculosis; experiment: Antimycobacterial activity against Mycobacterium tuberculosis by Bactec TB-460 assay
Bacillus cereus = experiment: Antibacterial activity against Bacillus cereus after 24 hr by p-iodonitrotetrazolium assay
Staphylococcus aureus = experiment: Antibacterial activity against Staphylococcus aureus after 24 hr by p-iodonitrotetrazolium assay
Escherichia coli = experiment: Antibacterial activity against Escherichia coli after 24 hr by p-iodonitrotetrazolium assay

Compound `CC1(C)CCC2=C(O1)c1ccccc1C(=O)C2=O` [LAPACHONE] has an MBC [1] of 80.7 µM (≈ 19.6 µg/mL), an MIC [1] of 20.2 µM (≈ 4.89 µg/mL) and an MIC (Bacillus cereus) of 161 µM. It also gave an MIC (Staphylococcus aureus) of 161 µM and an MIC (Escherichia coli) of 161 µM.
`CC(C)=CCC1(O)C(=O)c2ccccc2C1=O` gave an MBC [1] of 240 µM (≈ 55.2 µg/mL), an MIC [1] of 120 µM (≈ 27.6 µg/mL) and an MIC (Bacillus cereus) of over 78.1 µg/mL. The MIC (Staphylococcus aureus) was 240 µM and the MIC (Escherichia coli) was over 78.1 µg/mL.
In the case of `CC(=O)c1cc2c(o1)C(=O)c1ccccc1C2=O` [NAPABUCASIN], the MBC [1] is reported as 163 µM (≈ 39.1 µg/mL), the MIC [1] is reported as 40.7 µM (≈ 9.77 µg/mL) and the MIC (Bacillus cereus) is reported as over 78.1 µg/mL. For the same compound, the MIC (Staphylococcus aureus) was 326 µM and the MIC (Escherichia coli) was over 78.1 µg/mL.
For `C=C(C)c1cc2c(o1)C(=O)c1ccccc1C2=O`, the MBC [1] was 164 µM (≈ 39.1 µg/mL), the MIC [1] was 41 µM (≈ 9.77 µg/mL) and the MIC (Bacillus cereus) was over 78.1 µg/mL. It also gave an MIC (Staphylococcus aureus) of 328 µM and an MIC (Escherichia coli) of 328 µM.
With `C=C(C)C1CC2=C(O1)C(=O)c1ccccc1C2=O` (stereo not drawn) [DEHYDROISO-ALPHA-LAPACHONE] the MBC [1] was 81.4 µM (≈ 19.6 µg/mL), the MIC [1] was 40.7 µM (≈ 9.77 µg/mL) and the MIC (Bacillus cereus) was over 78.1 µg/mL. The MIC (Staphylococcus aureus) was 326 µM and the MIC (Escherichia coli) was over 78.1 µg/mL.
With GENTAMICIN the MIC (Bacillus cereus) was 3.6 µM, the MIC (Staphylococcus aureus) was 7.2 µM and the MIC (Escherichia coli) was 3.6 µM.
`CC(C)=CCC1=C(O)C(=O)c2ccccc2C1=O` [LAPACHOL] showed an MBC [1] of 646 µM (≈ 156 µg/mL), an MIC [1] of 161 µM (≈ 39.1 µg/mL) and an MIC (Bacillus cereus) of over 78.1 µg/mL. It also gave an MIC (Staphylococcus aureus) of over 78.1 µg/mL and an MIC (Escherichia coli) of over 78.1 µg/mL.
Work on `CC(=O)OC=CC1=C(O)C(=O)c2ccccc2C1=O` yielded an MIC (Bacillus cereus) of over 78.1 µg/mL, an MIC (Staphylococcus aureus) of over 78.1 µg/mL and an MIC (Escherichia coli) of over 78.1 µg/mL.
In the case of `CC(C)(O[N+](=O)[O-])C1CC2=C(O1)C(=O)c1ccccc1C2=O` (stereo not drawn), the MBC [1] is reported as 136 µM (≈ 41.3 µg/mL), the MIC [1] is reported as 34 µM (≈ 10.3 µg/mL) and the MIC (Bacillus cereus) is reported as over 78.1 µg/mL. The MIC (Staphylococcus aureus) was 272 µM and the MIC (Escherichia coli) was over 78.1 µg/mL.
`O=CCC1=C(O)C(=O)c2ccccc2C1=O` showed an MBC [1] of 723 µM (≈ 156 µg/mL), an MIC [1] of 362 µM (≈ 78.2 µg/mL) and an MIC (Bacillus cereus) of over 78.1 µg/mL. For the same compound, the MIC (Staphylococcus aureus) was over 78.1 µg/mL and the MIC (Escherichia coli) was over 78.1 µg/mL.
With `NNC(=O)c1ccncc1` [ISONIAZID] the MBC [1] was 1.75 µM (≈ 0.24 µg/mL) and the MIC [1] was 0.88 µM (≈ 0.121 µg/mL).
